Data as given in PubChem BioAssay (NCI).
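Growth conditions: 96-well plates. Treatment: test compound, 48 hours, 5 concentrations. Analysis: linear interpolation between bracketing concentrations; unreached endpoints set to highest concentration. At the GI50, growth is halved. At the TGI there is no net growth.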

Experiments:
Test in all cases: growth of human tumour cells (NCI), 48 h
CCRF-CEM leukemia = system: CCRF-CEM leukemia
SN12C renal = system: SN12C renal
NCI-H23 lung = system: NCI-H23 lung
MOLT-4 leukemia = system: MOLT-4 leukemia
SW-620 colon = system: SW-620 colon
IGROV1 ovarian = system: IGROV1 ovarian
NCI/ADR-RES ovarian = system: NCI/ADR-RES ovarian
DU-145 prostate = system: DU-145 prostate
M14 melanoma = system: M14 melanoma
OVCAR-8 ovarian = system: OVCAR-8 ovarian

Molecule `Clc1ccc(N2N=C(c3cccc(Nc4ccncc4)c3)CC2c2ccc3c(c2)OCO3)cc1` (stereo not given) has a GI50 (CCRF-CEM leukemia) of 3.18 µM, a TGI (CCRF-CEM leukemia) of 15.9 µM and a GI50 (SN12C renal) of 1.71 µM. For the same molecule, the TGI (SN12C renal) was 3.25 µM, the GI50 (NCI-H23 lung) was 1.74 µM and the TGI (NCI-H23 lung) was 3.37 µM. It also gave a GI50 (MOLT-4 leukemia) of 1.97 µM, a TGI (MOLT-4 leukemia) of 4.58 µM and a GI50 (SW-620 colon) of 1.63 µM. It also gave a TGI (SW-620 colon) of 3.15 µM, a GI50 (IGROV1 ovarian) of 1.73 µM and a TGI (IGROV1 ovarian) of 3.67 µM. For the same molecule, the GI50 (NCI/ADR-RES ovarian) was 1.64 µM, the TGI (NCI/ADR-RES ovarian) was 3.17 µM and the GI50 (DU-145 prostate) was 1.84 µM. It also gave a TGI (DU-145 prostate) of 3.39 µM.

`O=[N+]([O-])c1ccc2nc(-c3ccccn3)c(-c3ccccn3)nc2c1` was tested, and the TGI (CCRF-CEM leukemia) was > 100 µM, the TGI (M14 melanoma) was > 100 µM and the TGI (OVCAR-8 ovarian) was > 100 µM. For the same molecule, the TGI (SN12C renal) was > 100 µM, the TGI (NCI-H23 lung) was > 100 µM and the TGI (MOLT-4 leukemia) was > 100 µM. For the same molecule, the TGI (SW-620 colon) was > 100 µM, the TGI (IGROV1 ovarian) was > 100 µM and the TGI (NCI/ADR-RES ovarian) was > 100 µM. The TGI (DU-145 prostate) was > 100 µM.

`CN(C)c1nc(N(C)C)nc(N(C)C23CC4CC(CC(C4)C2)C3)n1` was tested, and the TGI (CCRF-CEM leukemia) was 66.6 µM, the TGI (M14 melanoma) was > 100 µM and the TGI (OVCAR-8 ovarian) was > 100 µM. The TGI (NCI-H23 lung) was 34.1 µM, the TGI (SW-620 colon) was > 100 µM and the TGI (IGROV1 ovarian) was 58.8 µM. The TGI (NCI/ADR-RES ovarian) was > 100 µM and the TGI (DU-145 prostate) was > 100 µM.

Molecule `Clc1ccc(Cc2nc3ccccc3nc2-c2cccc(Br)c2)cc1` has a TGI (CCRF-CEM leukemia) of 5.04 µM, a TGI (M14 melanoma) of 5.17 µM and a TGI (OVCAR-8 ovarian) of 8.09 µM. The TGI (SN12C renal) was 10.1 µM, the TGI (NCI-H23 lung) was 26.6 µM and the TGI (MOLT-4 leukemia) was 6.84 µM. It also gave a TGI (SW-620 colon) of 4.49 µM, a TGI (IGROV1 ovarian) of 3.49 µM and a TGI (NCI/ADR-RES ovarian) of 15.3 µM. The TGI (DU-145 prostate) was 24.5 µM.

For `Cc1cc(=O)n2nc(SCc3ccccc3)sc2n1`, the TGI (CCRF-CEM leukemia) was > 100 µM, the TGI (M14 melanoma) was > 100 µM and the TGI (OVCAR-8 ovarian) was > 100 µM. For the same molecule, the TGI (SN12C renal) was > 100 µM, the TGI (NCI-H23 lung) was > 100 µM and the TGI (MOLT-4 leukemia) was > 100 µM. The TGI (SW-620 colon) was > 100 µM, the TGI (IGROV1 ovarian) was > 100 µM and the TGI (NCI/ADR-RES ovarian) was > 100 µM. For the same molecule, the TGI (DU-145 prostate) was > 100 µM.

With `Nc1cccc2c1C(=O)c1cccc(N)c1C2=O` the TGI (CCRF-CEM leukemia) was > 100 µM, the TGI (M14 melanoma) was > 100 µM and the TGI (OVCAR-8 ovarian) was > 100 µM. For the same molecule, the TGI (SN12C renal) was > 100 µM, the TGI (NCI-H23 lung) was > 100 µM and the TGI (MOLT-4 leukemia) was > 100 µM. For the same molecule, the TGI (SW-620 colon) was > 100 µM and the TGI (IGROV1 ovarian) was > 100 µM.

`Nc1nc(-c2ccccc2N=NN2CCCC2)nc2ccccc12` was tested, and the TGI (CCRF-CEM leukemia) was 19.1 µM, the TGI (M14 melanoma) was 12.5 µM and the TGI (OVCAR-8 ovarian) was 3.77 µM. For the same molecule, the TGI (SN12C renal) was 3.43 µM, the TGI (NCI-H23 lung) was 8.06 µM and the TGI (MOLT-4 leukemia) was 3.52 µM. It also gave a TGI (SW-620 colon) of 5.96 µM, a TGI (IGROV1 ovarian) of 17.3 µM and a TGI (NCI/ADR-RES ovarian) of 12.2 µM. For the same molecule, the TGI (DU-145 prostate) was 16.5 µM.

With `CC(=O)O[C@@H]1C[C@@]23C[C@@]24CC[C@H](OC2OCC(O)C(O)C2O)C(C)(C)[C@@H]4CC=C3[C@]2(C)C[C@@H]3OC4(C[C@@H](C)[C@@H]3[C@@]12C)OC(O)[C@@]1(C)O[C@@H]41` (stereo not given in full) the TGI (CCRF-CEM leukemia) was 63.5 µM, the TGI (M14 melanoma) was > 100 µM and the TGI (OVCAR-8 ovarian) was > 100 µM. The TGI (SN12C renal) was > 100 µM, the TGI (NCI-H23 lung) was > 100 µM and the TGI (SW-620 colon) was > 100 µM. For the same molecule, the TGI (IGROV1 ovarian) was > 100 µM, the TGI (NCI/ADR-RES ovarian) was > 100 µM and the TGI (DU-145 prostate) was > 100 µM.

In the case of `CCOP(=O)(OCC)C(Nc1cccc(F)c1)c1ccccc1` (stereo not given), the TGI (CCRF-CEM leukemia) was > 100 µM, the TGI (M14 melanoma) was > 100 µM and the TGI (OVCAR-8 ovarian) was > 100 µM. The TGI (SN12C renal) was > 100 µM, the TGI (NCI-H23 lung) was > 100 µM and the TGI (MOLT-4 leukemia) was > 100 µM. The TGI (IGROV1 ovarian) was > 100 µM, the TGI (NCI/ADR-RES ovarian) was > 100 µM and the TGI (DU-145 prostate) was > 100 µM.

`Cc1cc(C)c(P2C(=C(O[Si](C(C)C)(C(C)C)C(C)C)C(C)(C)C)C2(c2ccccc2)c2ccccc2)c(C)c1` (stereo not given) was tested, and the TGI (CCRF-CEM leukemia) was > 100 µM, the TGI (M14 melanoma) was > 100 µM and the TGI (OVCAR-8 ovarian) was > 100 µM. For the same molecule, the TGI (SN12C renal) was > 100 µM, the TGI (NCI-H23 lung) was > 100 µM and the TGI (MOLT-4 leukemia) was > 100 µM. The TGI (SW-620 colon) was > 100 µM, the TGI (IGROV1 ovarian) was > 100 µM and the TGI (NCI/ADR-RES ovarian) was > 100 µM. For the same molecule, the TGI (DU-145 prostate) was > 100 µM.
